Laboratory results: PMC8003343 (Pharmaceuticals, 2021)

Columns and labels:
[1] = rats and mice after [18F]CPFPX injection; cited from earlier work
[2] = radiometabolite of [18F]CPFPX; cited from earlier work
[3] = from [18F]CPFPX; cited from earlier work
[4] = from [18F]CPFPX; cited from earlier work; remark: listed apart in the source
[5] = Metabolite profiles in liver microsomes from various species (HPLC-UV/LCMS); type: in vitro ADME, human, rat, mouse, dog, mini pig, rhesus monkey; settings: for Species (liver microsomes in which the peak was found): h human, r rat, m mouse, d dog, mp mini pig, rh rhesus, brackets indicate minor peaks, 275 nm; for species whose metabolite profile is most similar to the human metabolite profile: liver microsomes; for number of metabolites produced by microsomal metabolism: in the microsomes of the test species
Protocol: Microsomal assays aimed at metabolite profiling were conducted according to the protocol described in Section 4.3.1, but with 10 µL substrate (CBX, MCBX, CPFPX) in a total incubation volume of 1 mL. In Table 6, microsomal protein concentrations and incubation times used in the individual assays are listed. Blank samples containing all matrix components but no substrate were included. Incubations were terminated by adding two volumens of a mixture of MeOH/MeCN (50:50, v/v, cooled to −20 °C). Samples were then vortexed (1 min, 21 °C), centrifuged (10 min, 20,000× g rcf, 21 °C), and evaporated to dryness using a centrifugal vacuum concentrator (Concentrator 5301, Eppendorf, Wesseling-Berzdorf, Germany) set to a temperature of 45 °C. Dried samples were reconstituted with 160 µL HPLC eluent (MeCN/H2O/AcOH 35:65:0.1 (v/v/v)) and centrifuged (3 min, 20,000× g rcf, 21 °C). Aliquots of the clear supernatant (25 µL) were subsequently injected into the HPLC system. Chromatographic parameters were the same as described in Section 4.3.1, except for the addition of a 3 mm NH2 guard column (OPTI-GUARD, Optimize Technologies Inc., Oregon City, OR, USA). For LCMS analyses, the UV-detector outlet was coupled to a mass spectrometer (MSQ PlusTM, Thermo Electron Corporation, San Jose, CA, USA) via an electrospray interface. LCMS parameters were as follows. Nebulizer M gas pressure: 6 bar; desolvation temperature: 500 °C; positive ion mode (ESI+); sprayer voltage: 3000 V; cone voltages: 50 V (unfragmented spectra) or 185 V (fragmented spectra), m/z range 1–800; scan time: 1 s. Mass spectra were analyzed using Xcalibur software (version 3.0).

[6] = parameters: method as in PMID 1441590; settings: human microsomes from a single donor; cited from earlier work
[7] = In vitro intrinsic clearance in human liver microsomes (HLM); type: in vitro ADME
Protocol: (§1) Liver microsomes from Sprague Dawley rats (RLM), CD-1 mice (MLM), beagle dogs (DLM), Göttinger mini pigs (MPLM), rhesus monkeys (RMLM), and humans (HLM, specified total P450 content: 0.286 nmol/mg protein) were obtained from Thermo Fisher Scientific/Life Technologies (Darmstadt, Germany). Optimization of incubation conditions (microsomal protein concentration, substrate solvent, incubation buffer) has been carried out in a previous study. For assessment of intrinsic clearance (CLint), substrate (8 µM CBX, MCBX or CPFPX, stock solutions in DMSO) and microsomes (0.4 mg/mL RLM, MLM, DLM and MPLM, 2.0 mg/mL HLM and 0.04 mg/mL RMLM) were preincubated for 5 min at 37 °C in HEPES buffer (100 mM, pH 7.4) containing MgCl2 (3.3 mM). Enzymatic reactions were initiated by addition of preheated NADPH (1.3 mM) and were allowed to proceed for 30 min. Aliquots (100 µL) were sampled from the incubation mixture (500 µL total volume) at 0 and 30 min. An equal volume of a mixture of MeOH/MeCN (50:50, v/v, cooled to −20 °C) was added to terminate the reaction. After subsequent homogenization on a vortex mixer (1 min, 21 °C) and centrifugation (10 min, 20,000× g rcf, 21 °C), the supernatants (50 µL aliquots) were analyzed via HPLC-UV/VIS (Knauer smartline system equipped with a Rheodyne type 7125 sample injector and a 500 µL sample loop). Chromatographic conditions were as follows. Column: 4.6 mm × 250 mm Kromasil 100-5-C18 (AkzoNobel, Bohus, Sweden); eluent composition: MeCN/H2O/AcOH 48:52:0.2 (v/v/v); flow rate: 1 mL/min; detection wavelength: 275 nm. Microsomal assays were performed in quadruplicate.
(§2) Elimination rate constants (k) of CBX, MCBX, and CPFPX were derived via linear regression analysis of semi-logarithmic peak area vs. time plots.
(§3) In vitro half-life (t1/2) was calculated as:(1) t1/2=ln2/k
(§4) In vitro intrinsic clearance was calculated as follows:(2) Clint=ln2/t1/2[…] where c is the microsomal protein concentration. Since the main focus of the study was to compare CLint between species, but not between compounds, no correction for the microsomal unbound fraction was applied.

[8] = In vitro intrinsic clearance in rat liver microsomes (RLM); type: in vitro ADME, Sprague Dawley rats; settings: microsomes from rat, mouse, mini pig, and rhesus
Protocol: as §1, §2, §3, §4

[9] = In vitro intrinsic clearance in dog liver microsomes (DLM); type: in vitro ADME, beagle dogs
Protocol: as §1, §2, §3, §4

[10] = Enone metabolite formation in rat liver microsomes; type: in vitro ADME; settings: 6 at 4 µM, 0.4 mg/mL RLM, 100 min
Protocol: (§5) In preliminary experiments, the potential enone precursors 5–8 (8 µM) were incubated with either RLM (0.4 mg/mL) or HLM (0.8 mg/mL) for up to 4 h according to the protocol given in Section 4.3.1. Multiple samples were taken during incubation and analyzed with regard to the presence of the enone metabolite 4 in the incubation mixture.
(§6) The time course of the formation of 4 from precursor 6 was monitored by incubation of 6 (4 µM) with either 1.0 mg/mL HLM for 150 min or 0.4 mg/mL RLM for 100 min according to the procedures described in Section 4.3.1. but with a prolonged centrifugation cycle (15 min) for protein precipitation. Chromatographic separation was performed on a Kromasil C18 column (see Section 4.3.1) equipped with a 3 mm NH2 guard column (OPTI-GUARD, Optimize Technologies Inc., Oregon City, OR, USA) using an eluent composed of MeCN/H2O/AcOH 45:55:0.1 (v/v/v). All other chromatographic parameters resembled those given above. Incubations were conducted in triplicate.

[11] = Enone metabolite formation in human liver microsomes; type: in vitro ADME; settings: 6 at 4 µM, 1.0 mg/mL HLM, 150 min
Protocol: as §5, §6

[12] = In vitro intrinsic clearance in rhesus monkey liver microsomes (RMLM); type: in vitro ADME, rhesus monkeys; settings: rhesus vs human liver microsomes; highest ratio among the three compounds
Protocol: as §1, with “Aliquots (100 µL) were sampled from the incubation mixture (500 µL total volume) at 0 and 30 min. An equal volume of a mixture of MeOH/MeCN (50:50, v/v, cooled to −20 °C) was added to terminate the reaction.” left out, “Chromatographic conditions were as follows. Column: 4.6 mm × 250 mm Kromasil 100-5-C18 (AkzoNobel, Bohus, Sweden); eluent composition: MeCN/H2O/AcOH 48:52:0.2 (v/v/v); flow rate: 1 mL/min; detection wavelength: 275 nm. Microsomal assays were performed in quadruplicate.” left out
as §3
In vitro intrinsic clearance was calculated as follows:(2) Clint=ln2/t1/2×c where c is the microsomal protein concentration. […]

CCCn1c(=O)c2[nH]c(C3=CC(=O)CC3)nc2n(CCCF)c1=O [compound 4, 3-(3-Fluoropropyl)-8-(3-oxocyclopent-1-en-1-yl)-1-propylxanthine]
formation of the enone metabolite in vivo (plasma) [1]: generated in vivo | blood–brain barrier penetration [2]: does not penetrate the blood–brain barrier | excretion from the body [2]: slow excretion from the body | formation of the enone radiometabolite in human microsomes [3]: extensive formation | formation of the enone radiometabolite in microsomes from rats and mice [4]: almost no significant amounts could be detected | species microsomes generating the enone metabolite from CPFPX ([5]; substrate CPFPX): exclusively in human and dog microsomes | Species (liver microsomes in which the peak was found) ([5]; substrate CPFPX): h, d

Cn1c(=O)c2c(ncn2C)n(C)c1=O [caffeine]
rate of metabolism in hepatic microsomes, species comparison [6]: considerably higher in hepatic microsomes from humans than in those from rats or monkeys

CCCn1c(=O)c2[nH]c(C3CCC3)nc2n(CCCF)c1=O [CBX, 8-Cyclobutyl-3-(3-fluoropropyl)-1-propylxanthine]
rank order of CLint [7]: CBX > CPFPX > MCBX | rank order of CLint [8]: CPFPX > MCBX > CBX | rank order of CLint [9]: CPFPX > MCBX ≈ CBX | species whose metabolite profile is most similar to the human metabolite profile [5]: rhesus monkey and mini pig | Species (liver microsomes in which the peak was found) ([5]; substrate CBX): (h), r, m, d, (mp), rh

CCCn1c(=O)c2[nH]c(C3=CCCC3)nc2n(CCCF)c1=O [compound 6, 8-(Cyclopent-1-en-1-yl)-3-(3-fluoropropyl)-1-propylxanthine]
metabolic fate (time course) in rat liver microsomes [10]: oxidized to produce 9 | metabolic fate (time course) in human liver microsomes [11]: biotransformation proceeds from 6 via 9 to 4

CCCn1c(=O)c2[nH]c(C3=CC(O)CC3)nc2n(CCCF)c1=O (centres unmarked) [compound 9, 3-(3-fluoropropyl)-8-(3-hydroxycyclopent-1-en-1-yl)-1-propylxanthine]
metabolic fate (time course) in rat liver microsomes [10]: remained constant | metabolic fate (time course) in human liver microsomes [11]: further metabolized to 4

CCCn1c(=O)c2[nH]c(C3(C)CCC3)nc2n(CCCF)c1=O [MCBX, 3-(3-Fluoropropyl)-8-(1-methylcyclobutyl)-1-propylxanthine]
rank order of CLint [7]: CBX > CPFPX > MCBX | rank order of CLint [8]: CPFPX > MCBX > CBX | rank order of CLint [9]: CPFPX > MCBX ≈ CBX | number of metabolites produced by microsomal metabolism [5]: up to 10 metabolites | species whose metabolite profile is most similar to the human metabolite profile [5]: Rodent | Species (liver microsomes in which the peak was found) ([5]; substrate MCBX): h, r, m, d, mp, rh

CCCn1c(=O)c2nc(C3CCCC3)[nH]c2n(CCCF)c1=O [CPFPX, 8-Cyclopentyl-3-(3-fluoropropyl)-1-propylxanthine]
rank order of CLint [7]: CBX > CPFPX > MCBX | rank order of CLint [8]: CPFPX > MCBX > CBX | CLint in rhesus microsomes relative to human microsomes (fold higher) [12]: 134 fold | rank order of CLint [9]: CPFPX > MCBX ≈ CBX | number of metabolites produced by microsomal metabolism [5]: up to 12 metabolites | Species (liver microsomes in which the peak was found) ([5]; substrate CPFPX): h, r, m, d, mp, rh
